Data reported in ChEMBL document CHEMBL1153341, “Synthesis of new camptothecin analogs with improved antitumor activities” (Bioorg Med Chem Lett, 2009).
Active and inactive are the calls of the source. The rule behind the calls is not given here.

Tested on: QG-56
Assay: Antiproliferative activity against human QG56 cells after 3 days
Type: functional, cell-based
Conditions: QG-56, 72 h

| Compound | IC50 |
| --- | --- |
| CCCCN1C=Nc2cccc3nc4c(c1c23)Cn1c-4cc2c(c1=O)COC(=O)[C@]2(O)CC | 2.3 nM |
| CCCCN1C(=O)Nc2cccc3nc4c(c1c23)Cn1c-4cc2c(c1=O)COC(=O)[C@]2(O)CC | 1.2 nM |
| CC[C@@]1(O)C(=O)OCc2c1cc1n(c2=O)Cc2c-1nc1cccc3c1c2N(CCc1ccccc1)C(=O)N3 | 1.2 nM |
| CCCCCN1C=Nc2cccc3nc4c(c1c23)Cn1c-4cc2c(c1=O)COC(=O)[C@]2(O)CC | 2.3 nM |
| CCCCCN1C(C)=Nc2cccc3nc4c(c1c23)Cn1c-4cc2c(c1=O)COC(=O)[C@]2(O)CC | 1.8 nM |
| CC[C@@]1(O)C(=O)OCc2c1cc1n(c2=O)Cc2c-1nc1cccc3c1c2N(CCc1ccccc1)C=N3 | 2.1 nM |
| CC[C@@]1(O)C(=O)OCc2c1cc1n(c2=O)Cc2c-1nc1cccc3c1c2N(CCC(C)C)C(CO)=N3 | 1.8 nM |
| CC[C@@]1(O)C(=O)OCc2c1cc1n(c2=O)Cc2c-1nc1cccc3c1c2N(CCC(C)C)C(=O)N3 | 0.58 nM |
| CCCCCN1C(=O)Nc2cccc3nc4c(c1c23)Cn1c-4cc2c(c1=O)COC(=O)[C@]2(O)CC | 8.5 nM |
| CCc1c2c(nc3ccc(O)cc13)-c1cc3c(c(=O)n1C2)COC(=O)[C@]3(O)CC [7-ETHYL-10-HYDROXYCAMPTOTHECIN] | 2.8 nM |
| CC[C@@]1(O)C(=O)OCc2c1cc1n(c2=O)Cc2c-1nc1cccc3c1c2N(CCC(C)C)C=N3 | 0.25 nM |
| CC[C@@]1(O)C(=O)OCc2c1cc1n(c2=O)Cc2c-1nc1cccc3c1c2N(CCN1CCOCC1)C(=O)N3 | 18 nM |
| CC[C@@]1(O)C(=O)OCc2c1cc1n(c2=O)Cc2c-1nc1cccc3c1c2N(CCN1CCOCC1)C=N3 | 9.4 nM |
| CC[C@@]1(O)C(=O)OCc2c1cc1n(c2=O)Cc2c-1nc1cccc3c1c2N(CCC(C)C)C(=S)N3 | 0.16 nM |

Tested on: NCI-H460
Assay: Antiproliferative activity against human NCI-H460 cells after 3 days
Type: functional, cell-based
Conditions: NCI-H460, 72 h

| Compound | IC50 |
| --- | --- |
| CCCCN1C=Nc2cccc3nc4c(c1c23)Cn1c-4cc2c(c1=O)COC(=O)[C@]2(O)CC | 1.6 nM |
| CCCCN1C(=O)Nc2cccc3nc4c(c1c23)Cn1c-4cc2c(c1=O)COC(=O)[C@]2(O)CC | 0.99 nM |
| CC[C@@]1(O)C(=O)OCc2c1cc1n(c2=O)Cc2c-1nc1cccc3c1c2N(CCc1ccccc1)C(=O)N3 | 0.38 nM |
| CCCCCN1C=Nc2cccc3nc4c(c1c23)Cn1c-4cc2c(c1=O)COC(=O)[C@]2(O)CC | 2.3 nM |
| CCCCCN1C(C)=Nc2cccc3nc4c(c1c23)Cn1c-4cc2c(c1=O)COC(=O)[C@]2(O)CC | 0.66 nM |
| CC[C@@]1(O)C(=O)OCc2c1cc1n(c2=O)Cc2c-1nc1cccc3c1c2N(CCc1ccccc1)C=N3 | 0.91 nM |
| CC[C@@]1(O)C(=O)OCc2c1cc1n(c2=O)Cc2c-1nc1cccc3c1c2N(CCC(C)C)C(CO)=N3 | 0.52 nM |
| CC[C@@]1(O)C(=O)OCc2c1cc1n(c2=O)Cc2c-1nc1cccc3c1c2N(CCC(C)C)C(=O)N3 | 0.72 nM |
| CCCCCN1C(=O)Nc2cccc3nc4c(c1c23)Cn1c-4cc2c(c1=O)COC(=O)[C@]2(O)CC | 8.2 nM |
| CCc1c2c(nc3ccc(O)cc13)-c1cc3c(c(=O)n1C2)COC(=O)[C@]3(O)CC [7-ETHYL-10-HYDROXYCAMPTOTHECIN] | 3.3 nM |
| CC[C@@]1(O)C(=O)OCc2c1cc1n(c2=O)Cc2c-1nc1cccc3c1c2N(CCC(C)C)C=N3 | 0.11 nM |
| CC[C@@]1(O)C(=O)OCc2c1cc1n(c2=O)Cc2c-1nc1cccc3c1c2N(CCN1CCOCC1)C(=O)N3 | 26 nM |
| CC[C@@]1(O)C(=O)OCc2c1cc1n(c2=O)Cc2c-1nc1cccc3c1c2N(CCN1CCOCC1)C=N3 | 7.2 nM |
| CC[C@@]1(O)C(=O)OCc2c1cc1n(c2=O)Cc2c-1nc1cccc3c1c2N(CCC(C)C)C(=S)N3 | 0.08 nM |

Tested on: PC-6
Assay: Antiproliferative activity against human PC6 expressing BCRP cells after 6 days
Type: functional, cell-based
Conditions: PC-6, 144 h

| Compound | IC50 |
| --- | --- |
| CCCCCN1C=Nc2cccc3nc4c(c1c23)Cn1c-4cc2c(c1=O)COC(=O)[C@]2(O)CC | 0.35 nM |
| CCc1c2c(nc3ccc(O)cc13)-c1cc3c(c(=O)n1C2)COC(=O)[C@]3(O)CC [7-ETHYL-10-HYDROXYCAMPTOTHECIN] | 5.1 nM |

Tested on: PC-6
Assay: Antiproliferative activity against human PC6 cells carrying pRC after 6 days
Type: functional, cell-based
Conditions: PC-6, 144 h

| Compound | IC50 |
| --- | --- |
| CCCCCN1C=Nc2cccc3nc4c(c1c23)Cn1c-4cc2c(c1=O)COC(=O)[C@]2(O)CC | 0.18 nM |
| CCc1c2c(nc3ccc(O)cc13)-c1cc3c(c(=O)n1C2)COC(=O)[C@]3(O)CC [7-ETHYL-10-HYDROXYCAMPTOTHECIN] | 0.43 nM |

Biological target: T1, DNA topoisomerase 1 (Homo sapiens, UniProt P11387)
T1 sequence (P11387 whole entry): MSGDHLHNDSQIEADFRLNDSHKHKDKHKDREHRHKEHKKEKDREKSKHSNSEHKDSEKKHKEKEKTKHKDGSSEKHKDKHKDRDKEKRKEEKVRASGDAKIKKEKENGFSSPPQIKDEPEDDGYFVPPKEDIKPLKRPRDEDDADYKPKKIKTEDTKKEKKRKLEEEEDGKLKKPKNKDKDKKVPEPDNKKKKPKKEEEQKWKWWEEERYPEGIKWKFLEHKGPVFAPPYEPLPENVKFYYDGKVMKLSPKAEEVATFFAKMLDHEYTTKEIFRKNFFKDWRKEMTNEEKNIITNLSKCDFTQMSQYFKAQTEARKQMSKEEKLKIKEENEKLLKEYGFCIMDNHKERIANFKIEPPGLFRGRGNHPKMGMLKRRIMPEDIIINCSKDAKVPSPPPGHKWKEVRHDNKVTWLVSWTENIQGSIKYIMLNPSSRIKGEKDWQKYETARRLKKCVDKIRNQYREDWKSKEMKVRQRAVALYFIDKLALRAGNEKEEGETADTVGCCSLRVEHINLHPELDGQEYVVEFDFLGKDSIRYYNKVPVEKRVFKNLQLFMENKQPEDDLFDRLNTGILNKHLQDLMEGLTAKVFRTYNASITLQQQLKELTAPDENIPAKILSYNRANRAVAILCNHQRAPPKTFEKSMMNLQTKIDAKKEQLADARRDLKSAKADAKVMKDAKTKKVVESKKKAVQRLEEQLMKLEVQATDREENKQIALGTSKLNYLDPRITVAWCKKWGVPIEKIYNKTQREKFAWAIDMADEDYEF
Assay: Inhibition of human topoisomerase 1
Conditions: not given

| Compound | IC50 |
| --- | --- |
| CCCCCN1C=Nc2cccc3nc4c(c1c23)Cn1c-4cc2c(c1=O)COC(=O)[C@]2(O)CC | 2300 nM |
| CCc1c2c(nc3ccc(O)cc13)-c1cc3c(c(=O)n1C2)COC(=O)[C@]3(O)CC [7-ETHYL-10-HYDROXYCAMPTOTHECIN] | 5500 nM |

Tested on: HCT-116
Assay: Antitumor activity against BCRP-negative human HCT116 cells xenografted in mouse at 40 mg/kg, iv administered as single bolus dose for 3 weeks
Type: functional, organism-based
Parameters: dose 40 mg/kg
Conditions: not given

| Compound | Activity |
| --- | --- |
| CCCCCN1C=Nc2cccc3nc4c(c1c23)Cn1c-4cc2c(c1=O)COC(=O)[C@]2(O)CC | Active |

Tested on: HCT-116
Assay: Antitumor activity against BCRP-negative human HCT116 cells xenografted in mouse at 100 mg/kg, iv administered as single bolus dose for 3 weeks
Type: functional, organism-based
Parameters: dose 100 mg/kg
Conditions: not given

| Compound | Activity |
| --- | --- |
| CCCCCN1C=Nc2cccc3nc4c(c1c23)Cn1c-4cc2c(c1=O)COC(=O)[C@]2(O)CC | Active |

Tested on: NCI-H460
Assay: Antitumor activity against BCRP-positive human NCI-H460 cells xenografted in mouse at 40 mg/kg, iv administered as single bolus dose for 3 weeks
Type: functional, organism-based
Parameters: dose 40 mg/kg
Conditions: not given

| Compound | Activity |
| --- | --- |
| CCCCCN1C=Nc2cccc3nc4c(c1c23)Cn1c-4cc2c(c1=O)COC(=O)[C@]2(O)CC | Active |

Tested on: NCI-H460
Assay: Antitumor activity against BCRP-positive human NCI-H460 cells xenografted in mouse at 100 mg/kg, iv administered as single bolus dose for 3 weeks
Type: functional, organism-based
Parameters: dose 100 mg/kg
Conditions: not given

| Compound | Activity |
| --- | --- |
| CCCCCN1C=Nc2cccc3nc4c(c1c23)Cn1c-4cc2c(c1=O)COC(=O)[C@]2(O)CC | Active |

Tested on: not listed separately
Assay: Toxicity to iv dosed mouse administered as single bolus dose for 3 weeks
Type: organism-based
Conditions: in vivo

| Compound | MTD at 504 h |
| --- | --- |
| CCCCCN1C=Nc2cccc3nc4c(c1c23)Cn1c-4cc2c(c1=O)COC(=O)[C@]2(O)CC | 40 mg/kg |
| CCc1c2c(nc3ccc(OC(=O)N4CCC(N5CCCCC5)CC4)cc13)-c1cc3c(c(=O)n1C2)COC(=O)[C@]3(O)CC [IRINOTECAN] | 100 mg/kg |

Tested on: PC-6
Assay: Ratio of IC50 for human PC6 expressing BCRP cells to IC50 for human PC6 cells carrying pRC
Type: functional
Conditions: not given

| Compound | Ratio IC50 |
| --- | --- |
| CCCCCN1C=Nc2cccc3nc4c(c1c23)Cn1c-4cc2c(c1=O)COC(=O)[C@]2(O)CC | 2 |
| CCc1c2c(nc3ccc(O)cc13)-c1cc3c(c(=O)n1C2)COC(=O)[C@]3(O)CC [7-ETHYL-10-HYDROXYCAMPTOTHECIN] | 12 |

Tested on: HCT-116
Assay: Antiproliferative activity against human HCT116 cells after 3 days
Type: functional, cell-based
Conditions: HCT-116, 72 h

| Compound | IC50 |
| --- | --- |
| CCCCN1C=Nc2cccc3nc4c(c1c23)Cn1c-4cc2c(c1=O)COC(=O)[C@]2(O)CC | 0.52 nM |
| CCCCN1C(=O)Nc2cccc3nc4c(c1c23)Cn1c-4cc2c(c1=O)COC(=O)[C@]2(O)CC | 0.4 nM |
| CC[C@@]1(O)C(=O)OCc2c1cc1n(c2=O)Cc2c-1nc1cccc3c1c2N(CCc1ccccc1)C(=O)N3 | 0.25 nM |
| CCCCCN1C=Nc2cccc3nc4c(c1c23)Cn1c-4cc2c(c1=O)COC(=O)[C@]2(O)CC | 0.36 nM |
| CCCCCN1C(C)=Nc2cccc3nc4c(c1c23)Cn1c-4cc2c(c1=O)COC(=O)[C@]2(O)CC | 0.12 nM |
| CC[C@@]1(O)C(=O)OCc2c1cc1n(c2=O)Cc2c-1nc1cccc3c1c2N(CCc1ccccc1)C=N3 | 0.36 nM |
| CC[C@@]1(O)C(=O)OCc2c1cc1n(c2=O)Cc2c-1nc1cccc3c1c2N(CCC(C)C)C(CO)=N3 | 0.44 nM |
| CC[C@@]1(O)C(=O)OCc2c1cc1n(c2=O)Cc2c-1nc1cccc3c1c2N(CCC(C)C)C(=O)N3 | 0.05 nM |
| CCCCCN1C(=O)Nc2cccc3nc4c(c1c23)Cn1c-4cc2c(c1=O)COC(=O)[C@]2(O)CC | 0.85 nM |
| CCc1c2c(nc3ccc(O)cc13)-c1cc3c(c(=O)n1C2)COC(=O)[C@]3(O)CC [7-ETHYL-10-HYDROXYCAMPTOTHECIN] | 0.55 nM |
| CC[C@@]1(O)C(=O)OCc2c1cc1n(c2=O)Cc2c-1nc1cccc3c1c2N(CCC(C)C)C=N3 | < 0.04 nM |
| CC[C@@]1(O)C(=O)OCc2c1cc1n(c2=O)Cc2c-1nc1cccc3c1c2N(CCN1CCOCC1)C(=O)N3 | 3.6 nM |
| CC[C@@]1(O)C(=O)OCc2c1cc1n(c2=O)Cc2c-1nc1cccc3c1c2N(CCN1CCOCC1)C=N3 | 2.2 nM |
| CC[C@@]1(O)C(=O)OCc2c1cc1n(c2=O)Cc2c-1nc1cccc3c1c2N(CCC(C)C)C(=S)N3 | 0.02 nM |
